Reference: US9144573B2, “Prostaglandin transporter inhibitors” (Albert Einstein College of Medicine of Yeshiva University, priority 2006, dated 2015)

Tested on: EP4
Experiment: PGE2 binding to EP4 in membranes of MDCK cells expressing PGT
Assay type: cell-based, human
Conditions: 5 μM, 10 minutes at 37° C.
Protocol: EP4 expression in MDCK cells that constitutively express PGT was tested by determining PGE2 binding to the cells. Wild type MDCK cells and MDCK cells stably expressing PGT were transiently transfected with human cDNA of EP4 (UMR cNDA Resource Center, www.cdna.org). About 30 hours after transfection, the cells were incubated in Waymouth buffer containing 0 and 20 nM of unlabeled PGE2, and either 4% vehicle (DMSO) or 5 μM T26A, for 10 minutes at 37° C. The cells were then washed with PBS buffer and lysed the cells with lysing buffer containing 10 mM TrisHCl, pH, 7.5, 5 mM EDTA, 100 nM okadaic acid, and 20 μM indomethacin. The cells were then harvested and homogenized using a Potter-Elvehiem homogenizer in an ice cold solution containing 10 mM Tris-HCl, pH. 7.4, 1 mM EDTA, 0, 1 mM phenylmethylsulfonyl fluoride, 20 μM indomethacin, then centrifuged the homogenate at 800 g for 5 minutes. The supernatant was transferred to another tube and centrifuged at 19000 rpm for 45 minutes. The supernatant was then discarded and the pellets washed with buffer A containing 20 mM HEPES-NaOH, pH. […] EP4 bound to ^3H-PGE2 were quantified as described by Negishi et al., 1987. Nonspecific binding was determined by using 1000-fold excess of unlabeled PGE2 in the incubation mixture. The specific binding was calculated by subtracting the nonspecific bind value from the total binding value (Nishigaki et al., 1996).

Compound: [N-]=[N+]=NCCOCCOCCNC(=O)c1ccc(Nc2nc(NCCOCCOCCNC(=O)c3ccccc3)nc(Nc3ccc(O)cc3)n2)cc1 [T26A]
- effect on PGT-induced increase of PGE2 binding to EP4: abrogates this effect
